Results published in patent publication US8592435B2, “Nitrogen-containing six-membered aromatic ring derivatives and pharmaceutical products containing the same” (Daiichi Sankyo Company, Limited, priority 2007, dated 2013).

Legend:
chemokine receptor CCR3 = target: T1, chemokine receptor CCR3 (Homo sapiens, UniProt P51677); assay: Affinity to chemokine receptor CCR3; format: binding; conditions: at a concentration of 10 μM
T1 sequence (P51677 1-355): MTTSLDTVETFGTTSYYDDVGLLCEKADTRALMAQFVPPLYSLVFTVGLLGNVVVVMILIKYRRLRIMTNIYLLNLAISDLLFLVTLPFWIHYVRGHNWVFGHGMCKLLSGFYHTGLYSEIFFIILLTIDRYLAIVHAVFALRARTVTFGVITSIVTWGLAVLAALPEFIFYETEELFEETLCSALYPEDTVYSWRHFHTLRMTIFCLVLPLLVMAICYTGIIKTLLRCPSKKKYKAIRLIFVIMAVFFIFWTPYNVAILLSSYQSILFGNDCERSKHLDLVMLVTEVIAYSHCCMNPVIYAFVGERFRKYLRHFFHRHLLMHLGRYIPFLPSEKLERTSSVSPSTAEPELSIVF
From the text: Although the compounds of the present invention are novel compounds, compounds having a partly similar skeleton are described, for example, in Published Japanese Translation of PCT International Application No. 2003-507456, WO 01/79170 and WO 00/23076.

[1] = Repeated oral administration toxicity in rats; format: in vivo; conditions: orally administered repeatedly once a day for one week, 150 mg/kg/day
[2] = system: mixture of human vascular endothelial cells and fibroblasts; assay: Test Example 2: ability to promote angiogenesis (angiogenesis test kit KZ-1000); format: cell-based; conditions: Homo sapiens, 216 h; Compound Conc. = 3 μM; lumen length, % of control, day 9; read-out: Promotion of angiogenesis (%)
Summary of the method: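 Co-culture of human endothelial cells and fibroblasts; compound added on days 1, 4 and 7, CD31 immunostaining on day 9. Lumen length quantified from images and expressed as % of untreated control; 120 used as activity threshold.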

spinal cord neurons = assay: Test Example 3: ability to promote the neurite outgrowth of spinal cord neurons; format: cell-based, Wistar rats; conditions: Compound Conc. = 0.1 μM; % of control, day 3
Description: According to the method of Martin G. Hanson Jr. [J. Neurosci., 1998 Sep. 15; 18(18): 7361-71], the spinal cord region was isolated from 15-day embryos of female Wistar rats and the cells were dispersed using the papain dissociation system. Neurons were collected using 6.8% Metrizamide density gradient and were suspended in 2% FBS+Leibovitz's −15 medium so that the density of the cells will be 2×10^3 cells/well/200 μL. 200 μL of the cell suspension was inoculated on a poly-D-lysine/laminin-coated 96 well plate and the plate was incubated in an incubator at 37° C. Test compounds were added 1 hour after seeding of cells.
On day 3 of the incubation period, neurons were stained with Calcein-AM and the lengths of neurites were determined using IN Cell Analyzer (GE Healthcare Bioscience).
The ability (%) of each test compound to promote neurite outgrowth was calculated from the following equation: The ability to promote neurite outgrowth (%)=[(measurement with a compound of interest)/(measurement of control)]×100
Example Compounds 65, 71, 74, 92, 130 and 135 were used as test compounds and were each added at a concentration of 0.1 μM.
The results are shown in Table 27. bFGF gives a measurement of about 130 in this test.

[3] = system: critical limb ischemia model (left femoral artery excised); assay: Test Example 4: lower limb ischemia (critical limb ischemia) model in mice; format: in vivo, Balb/c mice; conditions: oral once daily 0.1 or 1.0 mg/kg for 10 days from femoral artery excision, vs Vehicle
Description: According to the method of Ichiro Masaki [Circ Res. 90; 966-973 (2002)], the left femoral artery of Balb/c mice was excised to establish a model of critical limb ischemia (n=29 to 30).
Test compounds used were Example Compounds 65, 92, 114, 130, 135 and 136, each of which was orally administered once daily at a dose of 0.1 mg/kg or 1.0 mg/kg for 10 days starting from the day of femoral artery excision.
The results are shown in FIGS. 1 to 6 in which FIGS. 1, 2, 3, 4, 5 and 6 show the results of Example Compounds 65, 92, 114, 130, 135 and 136, respectively.
In the figures, a thick solid line indicates a Vehicle group, a thin dotted line indicates a group administered 0.1 mg/kg/day of each compound, and a thin solid line indicates a group administered 1.0 mg/kg/day of each compound.
*: P<0.05, **: P<0.01, ***: P<0.001 vs Vehicle by Wilcoxon's test.

Cc1nc(OCC(=O)N(C)C2CCN(Cc3ccccc3)CC2)nc(C)c1N [Compound 65, 2-(5-amino-4,6-dimethylpyrimidine-2-yloxy)-N-(1-benzylpiperidine-4-yl)-N-methylacetamide]
affinity to chemokine receptor CCR3 (chemokine receptor CCR3): 0.0% | toxicity [1]: did not exhibit toxicity | activity at 3 µM [2]: 170% | Promotion of spinal cord neurite outgrowth (%) (spinal cord neurons): 135% | survival rate of lower limb [3]: increased survival rate
